Results taken from US20240024436A1, “METHOD FOR TREATING CANCER” (CHILDREN'S MEDICAL CENTER CORPORATION, priority 2022, published 2024).
“Also recorded” adds a separate entry of the source.

What was measured:
[1] = system: NADP/NADPH ratio in HCT-15 cells; assay: NADP/NADPH ratio, NADP/NADPH Assay Kit (colorimetric, OD 450 nm); type: cell-based, human
Description: FIG. 8a, HCT-15 cells were transduced with the indicated shRNAs and with the indicated doses of asparaginase, and the ratio of NADP to NADPH was measured using the NADP/NADPH Assay Kit (abcam product #ab65349). Relative NADP/NADPH ratio was assessed by microplate reader based on colorimetric signals (OD 450 nm), with colorimetric signal normalized to those in shLuc cells with no-asparaginase controls. FIG. 8b, the colorectal cancer cell line HCT-15 was treated with vehicle, asparaginase (500 U/L), G6PDi-1 (30 μM) or combination treatment. […] was measured by NADP/NADPH Assay Kit (ab65349) in indicated cells. Relative NADP/NADPH ratio was assessed by microplate reader based on colorimetric signals (OD 450 nm), with colorimetric signal normalized to those in shLuc cells with no-asparaginase controls.

[2] = system: colorectal cancer cell lines HCT-15 and HT-29; assay: Relative viability (trypan blue viable cell counts) with G6PDi-1 plus asparaginase; type: cell-based, human; details: G6PDi-1 30 μM with indicated doses of asparaginase
Description: (§1) FIG. 3a colorectal cell lines, HCT-15 and HT-29 were treated with small molecule inhibitor G6PDi at the indicated concentrations and activity of G6PD was assessed. FIGS. 3b-3c Colorectal cancer cell lines, HCT-15 (FIG. 3b) and […] (FIG. 3c) were treated with vehicle or G6PDi-1 (30 μM) and with the indicated doses of asparaginase. Relative viability was assessed by counting viable cells based on trypan blue vital dye staining, with cell counts normalized to those in cells with no-asparaginase controls.

[3] = system: Apc-deficient organoids with mutations of Tp53 and Kras; assay: Organoid viability (counting viable organoids); type: cell-based, mouse; details: 500 U/L asparaginase + 100 μM G6PDi-1, basal medium
Description: FIG. 4a Apc-deficient organoids with mutations of Tp53 and Kras were cultured in basal medium and treated with vehicle, asparaginase (500 U/L), G6PDi-1 (100 μM), or combo (500 U/L asparaginase+100 μM G6PDi-1). FIG. 4b Viability of organoids from FIG. 4a was assessed by counting viable organoids. Data is relative to vehicle treatment group.

G6PD = biological target: T1, G6PD (Homo sapiens, UniProt P11413); assay: G6PD activity assay in colorectal cell lines treated with G6PDi; type: cell-based; details: HCT-15 and HT-29 treated with G6PDi at the indicated concentrations
T1 construct: endogenous in cells; host or cells: HCT-15 and HT-29 colorectal cancer cell lines
Description: as §1

[4] = system: mouse intestinal organoid models of colorectal cancer; assay: Subcutaneous AKP organoid tumors in immunodeficient mice, tumor volume; type: in vivo; details: G6pdx-deficient (shG6pdx) organoid tumors, asparaginase 1,000 U/kg
Description: Left panel, Mouse intestinal organoids with Apc deficiency, Kras activating mutations, and Tp53 loss (so-called AKP organoids) were transduced with two distinct control shRNAs (shGFP and shLuciferase), or two distinct shRNAs targeting G6pdx (the mouse G6PD gene). Knockdown of G6pdx protein expression was confirmed by Western blot analysis.
Organoids were transduced with control (shLuc) and two distinct shG6pdx-targeting shRNAs (see FIG. 10), and injected subcutaneously into immunodeficient mice. After engraftment of tumors (defined as tumors reaching a volume of 150 mm3), mice were treated with vehicle (phosphate-buffered saline, PBS) or asparaginase (1,000 U/kg), and tumor volumes were followed. Asparaginase or PBS were re-dosed at the time points indicated by the black arrows.

[5] = system: HCT-15 colorectal cancer cell line; assay: Relative viability of G6PD knock-out HCT-15 clones treated with asparaginase; type: cell-based, human; details: G6PD knock-out (KO) clones of HCT-15 versus wild-type
Description: FIG. 5a, Western blot analysis of G6PD protein expression levels in parental HCT-15 cells (G6PD wild-type) and two distinct G6PD knock-out (KO) clones generated by CRISPR-Cas9 induced gene deletion. FIG. 5b, control (G6PD wild-type) or G6PD knockout (KO) clones of the HCT-15 colorectal cancer cell line were treated with asparaginase at the indicated doses, and relative cell viability was assessed by counting the number of live cells based on trypan blue vital dye staining, with cell counts normalized to those in cells with no-asparaginase controls.

[6] = system: HCT-15 colorectal cancer cells; assay: Relative viability of HCT-15 cells with CRISPR interference of RPIA and RPE, treated with asparaginase; type: cell-based, human; details: HCT-15 with dCas9-KRAB and guide RNAs targeting RPIA and RPE promoters
Description: HCT-15 colorectal cancer cells were transduced with a so-called CRISPR interference system, consisting of a dCas9-KRAB expression construct and guide RNAs targeting the promoters of RPIA and RPE, to inhibit expression of these enzymes. Cells were then treated with vehicle or asparaginase at the indicated doses. Relative viability was assessed by counting viable cells based on trypan blue vital dye staining, with cell counts normalized to those in cells with no-asparaginase controls.

[7] = system: NADP/NADPH ratio in HCT-15 G6PD knock-out cells; assay: NADP/NADPH ratio by liquid chromatography/mass spectrometry in G6PD knock-out clones; type: cell-based, human; details: HCT-15 G6PD knock-out clones #1 and #2, asparaginase 500 U/L
Description: HCT-15 cells that were either G6PD wild-type (WT) parental cells, or G6PD knock-out clones #1 and #2, were treated by vehicle or asparaginase (500 U/L). NADP/NADPH ratio was measured by liquid chromatography/mass spectrometry, and levels are shown normalized to those in HCT-15 cells with no-asparaginase controls.

[8] = system: ROS levels in HCT-15 cells; assay: Reactive oxygen species levels, Cellular ROS Assay Kit; type: cell-based, human; details: G6PD deficient (shG6PD #1 and #2) HCT-15 cells, indicated doses
Description: HCT-15 cells were transduced with negative control shRNA (shLuciferase, shLuc) or with two distinct G6PD-targeting shRNAs (shG6PD #1 and #2), treated with asparaginase at the indicated doses, and reactive oxygen species (ROS) levels were assessed using the Cellular ROS Assay Kit (Abcam, product number ab113851) in shLuc (control). ROS levels were measured by fluorescence microplate reader, and were normalized to those in shLuc-transduced, no-asparaginase controls. […] Results are shown as means±SEM; n=3. ****P<0.0001.

T1 sequence (P11413 whole entry): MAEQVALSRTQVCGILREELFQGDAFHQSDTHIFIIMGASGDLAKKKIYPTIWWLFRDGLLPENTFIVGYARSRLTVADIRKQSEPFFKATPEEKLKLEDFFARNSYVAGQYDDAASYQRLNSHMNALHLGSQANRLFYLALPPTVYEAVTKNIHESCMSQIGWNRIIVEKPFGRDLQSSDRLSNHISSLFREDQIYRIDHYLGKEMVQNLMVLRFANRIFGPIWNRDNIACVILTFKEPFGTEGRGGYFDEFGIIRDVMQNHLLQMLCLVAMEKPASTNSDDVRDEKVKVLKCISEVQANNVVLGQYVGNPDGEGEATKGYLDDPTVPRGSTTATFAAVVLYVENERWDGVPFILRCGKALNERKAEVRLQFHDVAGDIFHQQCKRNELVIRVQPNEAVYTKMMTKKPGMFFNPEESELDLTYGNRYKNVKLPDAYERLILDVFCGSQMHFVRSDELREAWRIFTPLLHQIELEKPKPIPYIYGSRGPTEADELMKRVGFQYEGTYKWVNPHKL

Substance	relative NADP/NADPH ratio on G6PD inhibition ([1]; HCT-15 cells, G6PDi-1 30 μM)	sensitivity to asparaginase (relative viability) [2]	asparaginase sensitivity in organoids (viable organoids relative to vehicle) [3]	G6PD activity (G6PD)	relative NADP/NADPH ratio on asparaginase treatment ([1]; HCT-15 cells depleted of G6PD (shRNA or G6PDi-1 30 μM), asparaginase 500 U/L or indicated doses)	tumor volume / therapeutic activity [4]	asparaginase sensitivity (relative cell viability) [5]	relative viability on asparaginase treatment [6]	NADP/NADPH ratio on asparaginase treatment (LC/MS) [7]	reactive oxygen species levels on asparaginase treatment [8]
G6PDi-1	increased	induce sensitivity to asparaginase	induce asparaginase sensitivity	reduce G6PD activity						
asparaginase					further increased the NADP/NADPH ratio; also recorded: further increase of NADP/NADPH ratio	tumor volumes were reduced; also recorded: significant therapeutic activity	induces asparaginase sensitivity	None of the differences were statistically significant	further increase of NADP/NADPH ratio	not further elevated
